Tests used:
Test in all cases: relative viability (nuclei count vs DMSO), 5 days (fraction); higher = more cells survive
SW 1573 = tested on: SW 1573
Method in brief: (§1)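 For relative viability, nuclei counts in treated wells were divided by those in vehicle wells. Lung cancer cell lines had been pin-tool dosed in 1536-well plates the day after seeding and cultured for 5 days, then fixed and stained in one step (final 0.05% Triton X-100, 1% formaldehyde, 1 ug/ml Hoechst) and imaged at 4×. Doses were one drug alone or a fixed anchor-drug dose plus five library-drug doses (not always all listed) in √10 steps, and values are duplicate-plate medians.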

NCI-H1734 = tested on: NCI-H1734
Method in brief: as §1

NCI-H522 = tested on: NCI-H522
Method in brief: as §1

NCI-H2342 = tested on: NCI-H2342
Method in brief: as §1

RERF-LC-KJ = tested on: RERF-LC-KJ
Method in brief: as §1

NCI-H2228 = tested on: NCI-H2228
Method in brief: as §1

NCI-H1915 = tested on: NCI-H1915
Method in brief: as §1

HOP-62 = tested on: HOP-62
Method in brief: as §1

PC-3 [JPC-3] = tested on: PC-3 [JPC-3]
Method in brief: as §1

HCC-78 = tested on: HCC-78
Method in brief: as §1

NCI-H1975 = tested on: NCI-H1975
Method in brief: as §1

For `O=c1cc(-c2cccc3c2Sc2ccccc2S3)oc(N2CCOCC2)c1` + O=C(c1cc(Cc2n[nH]c(=O)c3ccccc23)ccc1F)N1CCN(C(=O)C2CC2)CC1 [Olaparib] (partner 8 µM), the relative viability (SW 1573; first compound 0.08 µM) was 0.513, the relative viability (SW 1573; first compound 0.253 µM) was 0.574 and the relative viability (SW 1573; first compound 0.8 µM) was 0.613. It also gave a relative viability (SW 1573; first compound 2.53 µM) of 0.487, a relative viability (SW 1573; first compound 8 µM) of 0.44 and a relative viability (NCI-H1734; first compound 0.08 µM) of 0.628. For the same compound, the relative viability (NCI-H1734; first compound 0.253 µM) was 0.659, the relative viability (NCI-H1734; first compound 0.8 µM) was 0.713 and the relative viability (NCI-H1734; first compound 8 µM) was 0.647. The relative viability (NCI-H522; first compound 0.08 µM) was 0.615, the relative viability (NCI-H522; first compound 0.253 µM) was 0.621 and the relative viability (NCI-H522; first compound 0.8 µM) was 0.612. The relative viability (NCI-H522; first compound 2.53 µM) was 0.723, the relative viability (NCI-H522; first compound 8 µM) was 0.576 and the relative viability (NCI-H2342; first compound 0.08 µM) was 0.52. The relative viability (NCI-H2342; first compound 0.253 µM) was 0.419, the relative viability (NCI-H2342; first compound 0.8 µM) was 0.476 and the relative viability (NCI-H2342; first compound 2.53 µM) was 0.471. For the same compound, the relative viability (NCI-H2342; first compound 8 µM) was 0.423, the relative viability (RERF-LC-KJ; first compound 0.08 µM) was 1.08 and the relative viability (RERF-LC-KJ; first compound 0.253 µM) was 1.07. It also gave a relative viability (RERF-LC-KJ; first compound 0.8 µM) of 0.9, a relative viability (RERF-LC-KJ; first compound 2.53 µM) of 0.977 and a relative viability (RERF-LC-KJ; first compound 8 µM) of 0.843. It also gave a relative viability (NCI-H2228; first compound 0.08 µM) of 0.691, a relative viability (NCI-H2228; first compound 0.253 µM) of 0.869 and a relative viability (NCI-H2228; first compound 0.8 µM) of 0.799. For the same compound, the relative viability (NCI-H2228; first compound 2.53 µM) was 0.83, the relative viability (NCI-H2228; first compound 8 µM) was 0.733 and the relative viability (NCI-H1915; first compound 0.08 µM) was 0.425. It also gave a relative viability (NCI-H1915; first compound 0.253 µM) of 0.266, a relative viability (NCI-H1915; first compound 0.8 µM) of 0.296 and a relative viability (NCI-H1915; first compound 2.53 µM) of 0.305. For the same compound, the relative viability (NCI-H1915; first compound 8 µM) was 0.226, the relative viability (HOP-62; first compound 0.08 µM) was 0.374 and the relative viability (HOP-62; first compound 0.253 µM) was 0.52. For the same compound, the relative viability (HOP-62; first compound 0.8 µM) was 0.543, the relative viability (HOP-62; first compound 2.53 µM) was 0.49 and the relative viability (HOP-62; first compound 8 µM) was 0.576. The relative viability (PC-3 [JPC-3]; first compound 0.08 µM) was 1.13, the relative viability (PC-3 [JPC-3]; first compound 0.253 µM) was 1.01 and the relative viability (PC-3 [JPC-3]; first compound 0.8 µM) was 0.95. The relative viability (PC-3 [JPC-3]; first compound 2.53 µM) was 1.09, the relative viability (PC-3 [JPC-3]; first compound 8 µM) was 1.19 and the relative viability (HCC-78; first compound 0.08 µM) was 0.792. The relative viability (HCC-78; first compound 0.253 µM) was 0.853, the relative viability (HCC-78; first compound 0.8 µM) was 0.935 and the relative viability (HCC-78; first compound 2.53 µM) was 0.839. The relative viability (HCC-78; first compound 8 µM) was 0.734, the relative viability (NCI-H1975; first compound 0.08 µM) was 0.831 and the relative viability (NCI-H1975; first compound 0.253 µM) was 0.94. For the same compound, the relative viability (NCI-H1975; first compound 0.8 µM) was 0.737, the relative viability (NCI-H1975; first compound 2.53 µM) was 0.666 and the relative viability (NCI-H1975; first compound 8 µM) was 0.598.
